Holding throughout (format): cell-based
One experiment relates to C. tropicalis ATCC 750. The conditions noted are these: C. tropicalis ATCC 750; read at 50% growth inhibition for echinocandins (24 h), 100% for amphotericin B (48 h). Here is the method: (§1) MIC and MEC assays were run as described in Example 31 with the following exceptions. Starting solutions of all antifungal agents were prepared in 100% DMSO. Stock concentrations were made at 50× the highest final assay concentration and serially diluted 2-fold, 16 times in a 96-well PCR plate (VWR 83007-374). Candida and Aspergillus suspensions from Sabouraud dextrose agar plate cultures were prepared in 0.85% saline at 0.5 McFarland standard (˜0.1 OD530 nm). Candida suspensions were diluted 1:500 in RPMI (MP Biomedicals, cat no. 1060124; buffered with MOPS and adjusted with NaOH to pH 7.0) to a concentration of ˜0.5-2.5×10^3 CFU/mL and Aspergillus suspensions were diluted 1:50 in RPMI to 0.4-5×10^4 CFU/mL final concentration. 98 μL of each cell suspension in RPMI were added to test wells in a 96-well assay plate (Costar cat. no. 3370). A Beckman Multimek 96 liquid handling robot was used to dispense 2 μL of each 50× stock compound into the plate containing 98 μL of each strain in RPMI (2% final solvent concentration). Plates were shaken then incubated at 35° C. for 24-48 h prior to reading. MIC values were read visually at 50% growth inhibition for echinocandins (24 h) and at 100% growth inhibition for amphotericin B (48 h). MEC values (24 h) were read with the aid of a microscope at the lowest echinocandin concentration where rounded/compact hyphal morphology was observed.

Experiment [1] concerns C. parapsilosis ATCC 22019. The following applies: C. parapsilosis ATCC 22019; read at 50% growth inhibition for echinocandins (24 h), 100% for amphotericin B (48 h). Here is the method:
as §1

The subject of the next experiment is C. glabrata ATCC 90030. The conditions noted are these: C. glabrata ATCC 90030; read at 50% growth inhibition for echinocandins (24 h), 100% for amphotericin B (48 h). On the procedure:
as §1

A further experiment has as its system C. krusei ATCC 14243. The following applies: C. krusei ATCC 14243; read at 50% growth inhibition for echinocandins (24 h), 100% for amphotericin B (48 h). Here is the method:
as §1

The text below walks through data of US20160213742A1, “COMPOSITIONS AND METHODS FOR THE TREATMENT OF FUNGAL INFECTIONS” (priority 2013, published 2016).

Turning to “caspofungin acetate [reference compound]”, the MIC against C. tropicalis ATCC 750 is 0.125 µg/mL; in experiment [1], 0.5 µg/mL; against C. glabrata ATCC 90030, 0.25 µg/mL; against C. krusei ATCC 14243, 0.25 µg/mL.

One may read the MIC as the lowest concentration found to suppress growth.
